Where two headings read alike, the source gives them in different places.
Assays:
[1] = tested on: MV4;11 cells; test: Cell viability assay (CellTiter-Glo) in MV4;11 cells, alone or with gilteritinib; type: cell-based; details: Homo sapiens, MV4;11 cells, three days, CellTiter-Glo, read-out: MV4
[2] = tested on: MOLM-13 cells; test: Cell viability assay (CellTiter-Glo) in MOLM-13 cells, alone or with gilteritinib; type: cell-based; details: Homo sapiens, MOLM-13 cells, three days, CellTiter-Glo
[3] = MV4-11, 72 h, compound alone (without gilteritinib), 11 IC50
[4] = MV4-11, 72 h, with gilteritinib 10 nM, 11 IC50 gilteritinib
[5] = MOLM-13, 72 h, compound alone (without gilteritinib), read-out: MOLM-13 IC50
[6] = MOLM-13, 72 h, with gilteritinib 20 nM, read-out: MOLM-13 IC50 gilteritinib
[7] = MV4-11, 72 h, compound with gilteritinib 10 nM, 11 IC50 gilteritinib
[8] = MOLM-13, 72 h, compound with gilteritinib 20 nM, read-out: MOLM-13 IC50 gilteritinib
[9] = 72 h, compound alone (without gilteritinib), 11 IC50
[10] = 72 h, with gilteritinib 10 nM, 11 IC50 gilteritinib
[11] = 72 h, compound alone (without gilteritinib), read-out: MOLM-13 IC50
[12] = 72 h, with gilteritinib 20 nM, read-out: MOLM-13 IC50 gilteritinib

Row | Compound | IC50 [1, 3] [µM] | IC50 [1, 4] [µM] | IC50 [2, 5] [µM] | IC50 [2, 6] [µM] | IC50 [1, 7] [µM] | IC50 [2, 8] [µM] | IC50 [1, 9] [µM] | IC50 [1, 10] [µM] | IC50 [2, 11] [µM] | IC50 [2, 12] [µM]
1 | O=C1CCC(N2C(=O)c3ccc(NCCC[C@H]4C[C@H](n5cc(-c6cccc(N7CCOCC7)n6)cn5)C4)cc3C2=O)C(=O)N1 (stereo partly drawn) [GS-217, 2-(2,6-Dioxopiperidin-3-yl)-5-((3-(trans-3-(4-(6-morpholinopyridin-2-yl)-1H-pyrazol-1-yl)cyclobutyl)propyl)amino)isoindoline-1,3-dione] | 0.01 to 0.1 | < 0.01 | 0.1 to 1 | < 0.01 |  |  |  |  |  | 
2 | O=C1CCC(N2C(=O)c3ccc(NCCCCC(=O)N4CCC(n5cc(-c6cnc7ccc(C8=CCNCC8)cc7n6)cn5)CC4)cc3C2=O)C(=O)N1 (centres unmarked) [GS-544, 2-(2,6-Dioxopiperidin-3-yl)-5-((5-oxo-5-(4-(4-(7-(1,2,3,6-tetrahydropyridin-4-yl)quinoxalin-2-yl)-1H-pyrazol-1-yl)piperidin-1-yl)pentyl)amino)isoindoline-1,3-dione] | 0.1 to 1 |  | 0.1 to 1 |  | < 0.01 | < 0.01 |  |  |  | 
3 | O=C1CCC(N2Cc3ccc(CCCCCC(=O)N4CCC(c5ccc(Cl)cc5)CC4)cc3C2=O)C(=O)N1 (centres unmarked) [GS-114, 3-(6-(6-(4-(4-Chlorophenyl)piperidin-1-yl)-6-oxohexyl)-1-oxoisoindolin-2-yl)piperidine-2,6-dione] |  |  |  |  |  |  | 0.1 to 1 | 0.01 to 0.1 | 0.1 to 1 | 0.01 to 0.1
4 | CNc1cccc(-c2cn([C@H]3C[C@H](CNc4ccc5c(c4)C(=O)N(C4CCC(=O)NC4=O)C5=O)C3)nc2C2CC2)n1 (stereo partly drawn) [GS-263, 5-(((trans-3-(3-Cyclopropyl-4-(6-(methylamino)pyridin-2-yl)-1H-pyrazol-1-yl)cyclobutyl)methyl)amino)-2-(2,6-dioxopiperidin-3-yl)isoindoline-1,3-dione] | 0.1 to 1 | 0.01 to 0.1 | 0.1 to 1 | 0.01 to 0.1 |  |  |  |  |  | 
5 | CC(C)n1ncc2c(-c3cn([C@H]4C[C@H](CNc5ccc6c(c5)C(=O)N(C5CCC(=O)NC5=O)C6=O)C4)nc3C3CC3)nccc21 (stereo partly drawn) [GS-612, 5-(((trans-3-(3-Cyclopropyl-4-(1-isopropyl-1H-pyrazolo[4,3-c]pyridin-4-yl)-1H-pyrazol-1-yl)cyclobutyl)methyl)amino)-2-(2,6-dioxopiperidin-3-yl)isoindoline-1,3-dione] | < 0.01 |  | < 0.01 |  | < 0.01 | < 0.01 |  |  |  | 
6 | O=C1CCC(N2C(=O)c3ccc(NCCNC4CC(n5cc(-c6cnc7ccccc7n6)cn5)C4)cc3C2=O)C(=O)N1 (centres unmarked) [GS-373, 2-(2,6-Dioxopiperidin-3-yl)-5-((2-((3-(4-(quinoxalin-2-yl)-1H-pyrazol-1-yl)cyclobutyl)amino)ethyl)amino)isoindoline-1,3-dione] |  |  |  |  |  |  | > 1 | > 1 | > 1 | > 1
7 | O=C1CCC(N2C(=O)c3ccc(NCCCN4CCC(n5cc(-c6cnc7ccccc7n6)cn5)CC4)cc3C2=O)C(=O)N1 (centres unmarked) [GS-343] | > 1 | > 1 | 0.1 to 1 | 0.01 to 0.1 |  |  |  |  |  | 
8 | Cc1nn([C@H]2C[C@@H](CCCNc3ccc4c(c3)C(=O)N(C3CCC(=O)NC3=O)C4=O)C2)cc1-c1cnc2ccc(C3CCOCC3)cc2n1 (stereo partly drawn) [GS-223, 2-(2,6-Dioxopiperidin-3-yl)-5-((3-(cis-3-(3-methyl-4-(7-(tetrahydro-2H-pyran-4-yl)quinoxalin-2-yl)-1H-pyrazol-1-yl)cyclobutyl)propyl)amino)isoindoline-1,3-dione] | < 0.01 | < 0.01 | < 0.01 | < 0.01 |  |  |  |  |  | 
9 | O=C1CCC(N2C(=O)c3ccc(CNC(=O)NC4CCCC(n5cc(-c6cnc7ccccc7n6)cn5)C4)cc3C2=O)C(=O)N1 (centres unmarked) [GS-349, 1-((2-(2,6-Dioxopiperidin-3-yl)-1,3-dioxoisoindolin-5-yl)methyl)-3-(3-(4-(quinoxalin-2-yl)-1H-pyrazol-1-yl)cyclohexyl)urea] | 0.01 to 0.1 | 0.01 to 0.1 | 0.1 to 1 | 0.01 to 0.1 |  |  |  |  |  | 

Second part, led by results:

Row | IC50 [1, 3] [µM] | IC50 [1, 4] [µM] | IC50 [2, 5] [µM] | IC50 [2, 6] [µM] | IC50 [1, 7] [µM] | IC50 [2, 8] [µM] | Compound | IC50 [1, 9] [µM] | IC50 [1, 10] [µM] | IC50 [2, 11] [µM] | IC50 [2, 12] [µM]
10 | > 1 | 0.01 to 0.1 | > 1 | 0.01 to 0.1 |  |  | Cc1c(-c2cnc3ccccc3n2)cnn1[C@H]1C[C@H](CCCNc2ccc3c(c2)C(=O)N(C2CCC(=O)NC2=O)C3=O)C1 (stereo partly drawn) [GS-170, 2-(2,6-Dioxopiperidin-3-yl)-5-((3-(trans-3-(5-methyl-4-(quinoxalin-2-yl)-1H-pyrazol-1-yl)cyclobutyl)propyl)amino)isoindoline-1,3-dione] |  |  |  | 
11 | 0.01 to 0.1 |  | 0.01 to 0.1 |  | < 0.01 | < 0.01 | O=C1CCC(N2C(=O)c3ccc(NCCCCC(=O)N4CCC(n5cc(-c6cnc7ccc(N8CCNCC8)cc7n6)cn5)CC4)cc3C2=O)C(=O)N1 (centres unmarked) [GS-543, 2-(2,6-Dioxopiperidin-3-yl)-5-((5-oxo-5-(4-(4-(7-(piperazin-1-yl)quinoxalin-2-yl)-1H-pyrazol-1-yl)piperidin-1-yl)pentyl)amino)isoindoline-1,3-dione] |  |  |  | 
12 | > 1 |  | > 1 |  | > 1 | > 1 | O=C1CCC(N2Cc3ccc(NCCCCCn4cc(-c5cnc6ccccc6n5)cn4)cc3C2=O)C(=O)N1 (centres unmarked) [GS-519, 3-(1-Oxo-6-((5-(4-(quinoxalin-2-yl)-1H-pyrazol-1-yl)pentyl)amino)isoindolin-2-yl)piperidine-2,6-dione] |  |  |  | 
13 | 0.1 to 1 | > 1 | > 1 | 0.1 to 1 |  |  | CN1CCN(c2ccc3ncc(-c4cnn(C5CC(CCCNc6ccc7c(c6)C(=O)N(C6CCC(=O)NC6=O)C7=O)C5)c4)nc3c2)CC1 (centres unmarked) [GS-172, 2-(2,6-Dioxopiperidin-3-yl)-5-((3-(3-(4-(7-(4-methylpiperazin-1-yl)quinoxalin-2-yl)-1H-pyrazol-1-yl)cyclobutyl)propyl)amino)isoindoline-1,3-dione] |  |  |  | 
14 | 0.01 to 0.1 | < 0.01 | > 1 | 0.01 to 0.1 |  |  | O=C1CCC(N2C(=O)c3ccc(NC[C@H]4C[C@H](n5cc(-c6cnc7ccc(CN8CCNCC8)cc7n6)c(C6CC6)n5)C4)cc3C2=O)C(=O)N1 (stereo partly drawn) [GS-068, 5-(((trans-3-(3-cyclopropyl-4-(7-(piperazin-1-ylmethyl)quinoxalin-2-yl)-1H-pyrazol-1-yl)cyclobutyl)methyl)amino)-2-(2,6-dioxopiperidin-3-yl)isoindoline-1,3-dione] |  |  |  | 
15 | 0.1 to 1 | 0.01 to 0.1 | 0.1 to 1 | < 0.01 |  |  | N#Cc1ccc2ncc(-c3cnn(C4CC(CCCNc5ccc6c(c5)C(=O)N(C5CCC(=O)NC5=O)C6=O)C4)c3)nc2c1 (centres unmarked) [GS-175, 3-(1-(3-(3-((2-(2,6-Dioxopiperidin-3-yl)-1,3-dioxoisoindolin-5-yl)amino)propyl)cyclobutyl)-1H-pyrazol-4-yl)quinoxaline-6-carbonitrile] |  |  |  | 
16 | < 0.01 |  | 0.01 to 0.1 |  | < 0.01 | < 0.01 | Cn1ccc2cnc(-c3cn([C@H]4C[C@H](CNc5ccc6c(c5)C(=O)N(C5CCC(=O)NC5=O)C6=O)C4)nc3C3CC3)cc21 (stereo partly drawn) [GS-618, 5-(((trans-3-(3-Cyclopropyl-4-(1-methyl-1H-pyrrolo[3,2-c]pyridin-6-yl)-1H-pyrazol-1-yl)cyclobutyl)methyl)amino)-2-(2,6-dioxopiperidin-3-yl)isoindoline-1,3-dione] |  |  |  | 
17 | > 1 |  | > 1 |  | > 1 | > 1 | Cc1cccc(-c2cn([C@H]3C[C@H](CNc4ccc5c(c4)C(=O)N(C4CCC(=O)NC4=O)C5=O)C3)nc2C)n1 (stereo partly drawn) [GS-449, 2-(2,6-dioxopiperidin-3-yl)-5-(((trans-3-(3-methyl-4-(6-methylpyridin-2-yl)-1H-pyrazol-1-yl)cyclobutyl)methyl)amino)isoindoline-1,3-dione] |  |  |  | 

Source: US20240050428A1 (Cullgen (Shanghai), Inc., priority 2020, published 2024)
